Reference: ChEMBL document CHEMBL2429716, “Molecular modeling studies of substituted 3,4-dihydroxychalcone derivatives as 5-lipoxygenase and cyclooxygenase inhibitors” (Med Chem Res, 2013)

Key:
Cyclooxygenase = target: T1, Cyclooxygenase (Rattus norvegicus, UniProt P35355+Q63921); assay: Inhibition of cyclooxygenase in rat RBL1 cells; type: cell-based; settings: rbl-1
T1 sequence (P35355 whole entry): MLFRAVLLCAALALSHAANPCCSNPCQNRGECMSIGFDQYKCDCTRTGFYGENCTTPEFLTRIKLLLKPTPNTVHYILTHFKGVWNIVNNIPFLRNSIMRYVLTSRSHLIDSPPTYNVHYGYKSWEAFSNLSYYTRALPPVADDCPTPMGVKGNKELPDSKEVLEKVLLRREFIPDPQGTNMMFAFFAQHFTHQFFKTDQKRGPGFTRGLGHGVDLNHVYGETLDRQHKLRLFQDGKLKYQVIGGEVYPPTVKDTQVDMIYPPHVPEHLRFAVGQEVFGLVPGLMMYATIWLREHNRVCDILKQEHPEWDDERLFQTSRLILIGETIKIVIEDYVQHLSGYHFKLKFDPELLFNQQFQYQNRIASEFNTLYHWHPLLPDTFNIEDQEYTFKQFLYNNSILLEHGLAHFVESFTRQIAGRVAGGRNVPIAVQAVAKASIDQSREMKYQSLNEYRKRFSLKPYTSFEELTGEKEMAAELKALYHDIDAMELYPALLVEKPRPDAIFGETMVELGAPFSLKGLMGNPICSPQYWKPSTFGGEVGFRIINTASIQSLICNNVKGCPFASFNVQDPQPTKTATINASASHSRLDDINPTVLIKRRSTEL
T1 sequence (Q63921 whole entry): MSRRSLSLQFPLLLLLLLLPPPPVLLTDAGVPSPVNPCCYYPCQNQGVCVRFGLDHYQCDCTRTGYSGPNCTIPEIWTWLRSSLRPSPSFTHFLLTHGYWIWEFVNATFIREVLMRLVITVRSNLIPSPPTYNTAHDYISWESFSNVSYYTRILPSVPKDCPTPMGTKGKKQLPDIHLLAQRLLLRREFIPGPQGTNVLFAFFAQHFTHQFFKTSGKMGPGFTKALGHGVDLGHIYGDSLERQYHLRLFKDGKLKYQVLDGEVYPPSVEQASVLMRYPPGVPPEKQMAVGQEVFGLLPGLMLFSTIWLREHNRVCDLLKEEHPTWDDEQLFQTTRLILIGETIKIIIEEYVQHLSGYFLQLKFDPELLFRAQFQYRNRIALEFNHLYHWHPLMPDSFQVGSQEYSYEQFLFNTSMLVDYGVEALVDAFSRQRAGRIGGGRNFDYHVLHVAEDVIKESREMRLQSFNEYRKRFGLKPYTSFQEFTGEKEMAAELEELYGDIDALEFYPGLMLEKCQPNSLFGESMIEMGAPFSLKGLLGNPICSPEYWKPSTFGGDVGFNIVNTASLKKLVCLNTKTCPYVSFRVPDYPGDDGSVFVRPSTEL

[1] = target: T2, Polyunsaturated fatty acid 5-lipoxygenase (Rattus norvegicus, UniProt P12527); assay: Inhibition of 5-lipoxygenase in rat RBL1 cells; type: cell-based, RBL-1
T2 sequence (P12527 whole entry): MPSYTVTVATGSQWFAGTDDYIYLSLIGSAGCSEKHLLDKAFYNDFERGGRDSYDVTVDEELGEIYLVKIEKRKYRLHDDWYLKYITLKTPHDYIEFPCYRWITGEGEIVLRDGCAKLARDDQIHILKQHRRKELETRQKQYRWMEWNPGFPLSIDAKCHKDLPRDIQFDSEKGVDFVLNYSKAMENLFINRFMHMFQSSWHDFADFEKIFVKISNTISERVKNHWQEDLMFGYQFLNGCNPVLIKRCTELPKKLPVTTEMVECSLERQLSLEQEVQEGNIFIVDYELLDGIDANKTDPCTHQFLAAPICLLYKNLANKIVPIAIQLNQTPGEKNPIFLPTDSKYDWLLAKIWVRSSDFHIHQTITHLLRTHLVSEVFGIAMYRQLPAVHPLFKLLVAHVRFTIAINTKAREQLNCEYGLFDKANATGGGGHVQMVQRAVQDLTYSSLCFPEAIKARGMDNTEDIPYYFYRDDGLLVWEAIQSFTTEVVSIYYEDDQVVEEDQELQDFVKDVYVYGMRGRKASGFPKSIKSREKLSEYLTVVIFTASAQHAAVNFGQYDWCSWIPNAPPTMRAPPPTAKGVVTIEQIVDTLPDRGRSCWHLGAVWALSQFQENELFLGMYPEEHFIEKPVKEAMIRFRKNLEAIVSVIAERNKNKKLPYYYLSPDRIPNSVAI

SMILES | IC50 (Cyclooxygenase) | IC50 [1]
COc1ccc(O)c(C(=O)/C=C/c2ccccc2)c1 | 41 µM | 41 µM
COc1ccccc1/C=C/C(=O)c1ccccc1 | 27 µM | 27 µM
O=C(/C=C/c1ccc([N+](=O)[O-])cc1)c1ccccc1 | 23 µM | 23 µM
O=C(/C=C/c1ccccc1)c1cc(O)ccc1O | 64 µM | 64 µM
COc1cc(/C=C/C(=O)c2ccc(Cl)cc2)ccc1O | 8.9 µM | 
O=C(/C=C/c1ccc(O)c(O)c1)c1cccc(O)c1 | 0.0042 µM | 
O=C(/C=C/c1ccc(O)c(O)c1)c1ccccc1 | 0.043 µM | 
COc1ccc(C(=O)/C=C/c2ccc(O)c(OC)c2)cc1 | 12 µM | 
COc1ccc(/C=C/C(=O)c2ccccc2)c(OC)c1 | 10 µM | 10 µM
COc1ccc(OC)c(C(=O)/C=C/c2ccccc2)c1 | 7.8 µM | 7.8 µM
O=C(/C=C/c1ccccc1C(F)(F)F)c1ccccc1 | 58 µM | 58 µM
Cc1ccc(O)c(C(=O)/C=C/c2ccccc2)c1 | 39 µM | 39 µM
COc1ccc(C)cc1C(=O)/C=C/c1ccccc1 | 24 µM | 24 µM
CCOc1ccc(OC)c(C(=O)/C=C/c2ccccc2)c1 | 38 µM | 38 µM
COc1ccc(OC(C)C)cc1C(=O)/C=C/c1ccccc1 | 14 µM | 14 µM
CCOc1ccc(OC)cc1C(=O)/C=C/c1ccccc1 | 27 µM | 27 µM
CCOc1ccc(OCC)c(C(=O)/C=C/c2ccccc2)c1 | 2.4 µM | 2.4 µM
Cc1ccc(C)c(C(=O)/C=C/c2ccccc2)c1 | 16 µM | 16 µM
CCOc1ccc(O)c(C(=O)/C=C/c2ccccc2)c1 | 5.3 µM | 5.3 µM
CC(C)c1ccc(O)c(C(=O)/C=C/c2ccccc2)c1 | 4 µM | 4 µM
CC(C)Oc1ccc(O)c(C(=O)/C=C/c2ccccc2)c1 | 11 µM | 11 µM
CCCCOc1ccc(O)c(C(=O)/C=C/c2ccccc2)c1 | 1 µM | 1 µM
Cc1ccc(/C=C/C(=O)c2ccccc2)c(C)c1 | 17 µM | 17 µM

SMILES | IC50 (Cyclooxygenase) | IC50 [1]
COc1ccc(OC)c(/C=C/C(=O)c2ccccc2)c1 | 7.8 µM | 7.8 µM
COc1ccc(O)c(/C=C/C(=O)c2ccccc2)c1 | 41 µM | 41 µM
CC(C)Oc1ccc(/C=C/C(=O)c2ccccc2)cc1 | 41 µM | 41 µM
CN(C)c1cccc(/C=C/C(=O)c2ccccc2)c1 | 9.8 µM | 9.8 µM
Cc1cccc(/C=C/C(=O)c2ccccc2)c1 | 27 µM | 27 µM
COc1cccc(OC)c1/C=C/C(=O)c1ccccc1 | 370 µM | 370 µM
COc1cccc(/C=C/C(=O)c2ccccc2)c1 | 6.5 µM | 6.5 µM
COc1ccc(/C=C/C(=O)c2ccccc2)cc1OC | 18 µM | 18 µM
O=C(/C=C/c1ccc(O)c(O)c1)c1ccccc1O | 0.023 µM | 
Cc1ccc(/C=C/C(=O)c2ccccc2)cc1 | 76 µM | 76 µM
CN(C)c1ccc(/C=C/C(=O)c2ccccc2)cc1 | 4.7 µM | 4.7 µM
COc1cc(/C=C/C(=O)c2ccccc2)ccc1O | 9 µM | 9 µM
COc1ccc(/C=C/C(=O)c2ccccc2)c(O)c1 | 15 µM | 15 µM
O=C(/C=C/c1ccccc1Cl)c1ccccc1 | 92 µM | 92 µM
Cc1cc(C)c(/C=C/C(=O)c2ccccc2)c(C)c1 | 400 µM | 400 µM
COc1cc(/C=C/C(=O)c2ccccc2)cc(OC)c1OC | 16 µM | 16 µM
O=C(/C=C/c1ccc(O)c(O)c1)c1c(O)cc(O)cc1O [3,4,2',4',6'-PENTAHYDROXYCHALCONE] | 0.14 µM | 
O=C(/C=C/c1ccc(Cl)cc1)c1ccccc1 [4-CHLORO CHALCONE] | 85 µM | 85 µM
COc1ccc(/C=C/C(=O)c2ccccc2)cc1 [4-METHOXY CHALCONE] | 20 µM | 20 µM
O=C(/C=C/c1ccc(O)c(O)c1)c1ccc(O)cc1O [BUTEIN] | 0.0046 µM | 
O=C(/C=C/c1ccccc1)c1ccccc1 [CHALCONE] | 43 µM | 43 µM
O=C(/C=C/c1ccc(O)cc1)c1ccc(O)cc1O [ISOLIQUIRITIGENIN] | 35 µM | 
